Measurements: patent US5432165A, “Methods for the treatment of infection caused by Hepatitis B virus (HBV)” (priority 1992, dated 1995)
“Also recorded” adds a separate entry of the source.

Tests used:
[1] = Safety of oral FIAU in HIV-infected patients with chronic hepatitis B
Description: Cohorts of five HIV-infected patients with chronic hepatitis B were studied at the tolerated doses. Plasma levels of FIAU and its major deiodinated metabolite FAU were determined two hours after dosing (peak levels) and just prior to dosing (trough levels) following the initial dose of FIAU and again on Days 3, 7, and 14 in order to make estimates of pharmacokinetic parameters including accumulation of drug or principal metabolite.
This study is an open label, uncontrolled trial. […] Tolerated doses could be studied in an additional five patient cohort of chronic hepatitis B patients, who were potentially more at risk of side effects. A month of post-treatment follow-up was provided for the hepatitis cohorts due to the known propensity of this disease to "flare" after therapy.
Additionally, all patients had to have completed the screening tests within four weeks of starting therapy, except for diagnostic HSV, VZV or CMV cultures. Those enrolled into the five patient cohorts of chronic hepatitis B patients had the same entry requirements, except that they had to have a history of chronic hepatitis B and be surface antigen positive. Liver function tests (AST, ALT, GGT, and bilirubin) could be Grade 2 or less at study entry for these patients. Patients receiving pentamidine aerosol for prophylaxis of recurrent Pneumocystis pneumonia could continue on this therapy during the study.
Patients were evaluated clinically at the screening visit, and on Days 1, 3, 7, 10, and 14. The hepatitis patients were additionally evaluated on Days 21 and 42. The blood chemistry and urinalysis tests were repeated additionally on Days 2 and 5.
Clinical evaluations consisted of a physical exam, which included a test of lower extremity muscle strength, medical history, systems review, grading of non-laboratory signs and symptoms of toxicity, and listing of concomitant medications. Additionally, at visits with clinical evaluations after Day 1, any adverse experiences were recorded.
The Day 3 safety profile consisted of the clinical evaluation, hematology, serum biochemistry, urinalysis, stool guaiac tests and plasma samples for peak and trough levels of FIAU and its major metabolite FAU. On Day 7 patients underwent clinical evaluation, an ECG, peak and trough serum samples, T cell profile, and hematology, serum biochemistry, urinalysis, and stool guaiac tests. A clinical evaluation, hematology, serum biochemistry, and urinalysis tests were done on Day 10. These were repeated for the Day 14 evaluation with the addition of an ECG, T cell profile, stool guaiac, and peak and trough plasma samples. The post-treatment evaluations of the hepatitis patients on Days 21 and 42 consisted of a clinical evaluation and serum biochemistry tests.

[2] = Adverse Experience Summary (Table II), HIV-infected patients; assay type: in vivo, human
Excerpt: A summary of the adverse effects experienced by some of the patients involved in the various dosage studies conducted are presented in Table II, attached hereto. Where no entry is given, no adverse experience was observed.

SMILES: O=c1[nH]c(=O)n([C@@H]2O[C@H](CO)[C@@H](O)[C@@H]2F)cc1I [FIAU, 1-(2'-deoxy-2'-fluoro-β-D-arabinofuranosyl)-5-iodouracil]
- tolerance compared with 1.0 or 0.5 mg/kg-day ([1]; 0.1 mg/kg-day): much better tolerated
- incidents of fatigue ([1]; 0.1 mg/kg-day, four patients): only one incident of fatigue
- tolerance of oral FIAU ([1]; 1.0 mg/kg-day TID 14 days, six hepatitis patients): completed the 14 days of therapy with no untoward effects; also recorded: relatively well-tolerated; also recorded: All six patients completed the full course of therapy
- increase in AST and ALT values, Patient 406 ([1]; 1.0 mg/kg-day, 28 days after completion of therapy): ~5 fold
- myositis ([1]; 1.0 mg/kg-day, Patient 101, after dosing was completed): severe myositis; also recorded: One patient experienced an episode of myositis
- average drop in lymphocytes ([1]; 1.0 mg/kg-day, hepatitis patients): 750 cells/mm^3
- decrease in average CD4 count ([1]; 1.0 mg/kg-day, hepatitis patients, Baseline to Day 14, p=0.03): 40%
- average CD4 count at Day 14 ([1]; 1.0 mg/kg-day, hepatitis patients, 691 at Baseline): 415
- average WBC at end of therapy ([1]; 1.0 mg/kg-day, hepatitis patients, baseline average 4,690, p=0.0085): 3,430
- average drop in neutrophils ([1]; 1.0 mg/kg-day, hepatitis patients, not significant): approximately 300 cell/mm^3
- decrease in lymphocytes ([1]; 1.0 mg/kg-day, hepatitis patients, p=0.00125): 39%
- significance of increases in liver enzymes during therapy ([1]; 1.0 mg/kg-day, hepatitis patients, p>0.1): increases in liver enzymes were not
- patients with mild to moderate nausea ([1]; 1.0 mg/kg-day, six hepatitis patients): Four patients reported mild to moderate nausea
- change of AST and ALT values, Patient 401 ([1]; 1.0 mg/kg-day, very end of therapy, back below Baseline after a month of follow-up): doubling
- toxicity overall ([1]; doses of 0.1 to 1.0 mg/kg-day, HIV-infected patients with chronic hepatitis B): have not produced unacceptable toxicity
- incidence of fatigue ([1]; the other groups (1.0 and 0.5 mg/kg-day)): 40-50%
- Incidence: ALT elevation, moderate (2.5-5.0x) ([2]; 0.1 mg/kg-day): 2/4
- Incidence: ALT elevation, severe (>5x) ([2]; 0.1 mg/kg-day): 1/4
- Incidence: AST elevation, moderate (2.5-5.0x) ([2]; 0.1 mg/kg-day): 2/4
- Incidence: AST elevation, severe (>5x) ([2]; 0.1 mg/kg-day): 1/4
- Incidence: Fatigue, moderate ([2]; 0.1 mg/kg-day): 1/4
- Incidence: Hyperbilirubemia, mild ([2]; 0.1 mg/kg-day): 2/4
- Incidence: Hypercalcemia, mild ([2]; 0.1 mg/kg-day): 1/4
- Incidence: Hypocalcemia, mild ([2]; 0.1 mg/kg-day): 1/4
- Incidence: Hypoglycemia, mild ([2]; 0.1 mg/kg-day): 1/4
- Incidence: Hyponatremia, mild ([2]; 0.1 mg/kg-day): 1/4
- Incidence: ALT elevation, mild (1.25-2.5x) ([2]; 0.5 mg/kg-day): 3/10
- Incidence: ALT elevation, severe (>5x) ([2]; 0.5 mg/kg-day): 2/10
- Incidence: AST elevation, mild (1.25-2.5x) ([2]; 0.5 mg/kg-day): 3/10
- Incidence: AST elevation, moderate (2.5-5.0x) ([2]; 0.5 mg/kg-day): 1/10
- Incidence: AST elevation, severe (>5x) ([2]; 0.5 mg/kg-day): 2/10
- Incidence: Diarrhea, mild ([2]; 0.5 mg/kg-day): 1/10
- Incidence: Disoriented, mild ([2]; 0.5 mg/kg-day): 1/10
- Incidence: Fatigue, mild ([2]; 0.5 mg/kg-day): 3/10
- Incidence: Fatigue, moderate ([2]; 0.5 mg/kg-day): 1/10
- Incidence: Headache, mild ([2]; 0.5 mg/kg-day): 2/10
- Incidence: Headache, moderate ([2]; 0.5 mg/kg-day): 1/10
- Incidence: Hemauria, moderate ([2]; 0.5 mg/kg-day): 1/10
- Incidence: Hypophosphatemia, moderate ([2]; 0.5 mg/kg-day): 1/10
- Incidence: Nausea, mild ([2]; 0.5 mg/kg-day): 3/10
- Incidence: Nausea, moderate ([2]; 0.5 mg/kg-day): 1/10
- Incidence: Proteinuria, mild ([2]; 0.5 mg/kg-day): 1/10
- Incidence: Stomatitis, moderate ([2]; 0.5 mg/kg-day): 1/10
- Incidence: Vomiting, mild ([2]; 0.5 mg/kg-day): 2/10
- Incidence: Weakness, mild ([2]; 0.5 mg/kg-day): 2/10
- Incidence: ALT elevation, mild (1.25-2.5x) ([2]; 1.0 mg/kg-day): 4/9
- Incidence: ALT elevation, moderate (2.5-5.0x) ([2]; 1.0 mg/kg-day): 1/9
- Incidence: ALT elevation, severe (>5x) ([2]; 1.0 mg/kg-day): 3/9
- Incidence: AST elevation, mild (1.25-2.5x) ([2]; 1.0 mg/kg-day): 4/9
- Incidence: AST elevation, moderate (2.5-5.0x) ([2]; 1.0 mg/kg-day): 1/9
- Incidence: AST elevation, severe (>5x) ([2]; 1.0 mg/kg-day): 3/9
- Incidence: Abdominal Cramping, moderate ([2]; 1.0 mg/kg-day): 1/9
- Incidence: Constipation, mild ([2]; 1.0 mg/kg-day): 1/9
- Incidence: Decreases sensations, mild ([2]; 1.0 mg/kg-day): 1/9
- Incidence: Diarrhea, mild ([2]; 1.0 mg/kg-day): 2/9
- Incidence: Difficulty focusing, mild ([2]; 1.0 mg/kg-day): 1/9
- Incidence: Dizziness, mild ([2]; 1.0 mg/kg-day): 1/9
- Incidence: Fatigue, mild ([2]; 1.0 mg/kg-day): 2/9
- Incidence: Fatigue, moderate ([2]; 1.0 mg/kg-day): 1/9
- Incidence: Fatigue, severe ([2]; 1.0 mg/kg-day): 1/9
- Incidence: Headache, mild ([2]; 1.0 mg/kg-day): 1/9
- Incidence: Headache, severe ([2]; 1.0 mg/kg-day): 1/9
- Incidence: Heartbum, mild ([2]; 1.0 mg/kg-day): 1/9
- Incidence: Light Stools, mild ([2]; 1.0 mg/kg-day): 1/9
- Incidence: Nausea, mild ([2]; 1.0 mg/kg-day): 6/9
- Incidence: Nausea, moderate ([2]; 1.0 mg/kg-day): 1/9
- Incidence: Paresibesia (extremities), mild ([2]; 1.0 mg/kg-day): 1/9
- Incidence: Vomiting, mild ([2]; 1.0 mg/kg-day): 1/9
- Incidence: Weakness, mild ([2]; 1.0 mg/kg-day): 2/9
- Incidence: Weakness, moderate ([2]; 1.0 mg/kg-day): 1/9
- Incidence: myositis, severe ([2]; 1.0 mg/kg-day): 1/9
